Data from US10245246B2, “β-substituted β-amino acids and analogs as chemotherapeutic agents” (QUADRIGA BIOSCIENCES, INC., priority 2014, dated 2019).

Tests used:
[1] = tested on: LLCPK cells conditionally expressing hLAT1; format: cell-based
B16 melanoma cells = experiment: In vivo tumor growth suppression, B16 efficacy model; details: C57BL/6 mice, s.c. B16 melanoma, dosed IP daily for 12 days; test compound 5 and 10 mg/kg, melphalan 2.5 mg/kg

N[C@@H](Cc1ccc(N(CCCl)CCCl)cc1)C(=O)O [Melphalan]
percent surviving cells in cells expressing LAT1 compared to cells not expressing LAT1 (reduction) [1]: about the same
Tumor Growth (% Control), 5 days post-dosing (B16 melanoma cells): 56 % Control
Tumor Growth (% Control), End of dosing (B16 melanoma cells): 33 % Control
